Test results reported in patent US20040077621A1, “Antioxidants” (Academia Sinica, priority 2002, published 2004).

Columns and labels:
DPPH scavenging assay = assay type: physicochemical; conditions: DPPH free radical
Experimental: (§1) The biological activities (e.g., antioxidative activities) of tetrapyrrole compounds described above can be evaluated by a number of assays. For example, an antioxidative activity of a test compound is evaluated by determining the compound's ability to inhibit the formation of conjugated diene during […] linoleic acid peroxidation (Wallin et al (1993) Anal. Biochem. 208: 10-15), or to inhibit the formation of malonyldialdhyde (MDA) during human low density lipoprotein (LDL) peroxidation (Yagi (1982) In lipid peroxides in Biology and Medicine. Yagi, K. (ed), pp. 223-242, Academic Press, New York). In another example, an antioxidative activity of a test compound is evaluated by determining the compound's ability to scavenge the free radicals of ? -diphenyl- ? -picrylhydrazyl (DPPH), or to scavenge superoxide anion, or to chelate Fe2+ cation, or to reduce power. See, e.g., Shimada et aL (1992) J. Agric. Food. Chem. 40: 945-948; Robak & Gryglewski (1988) Biochem. Pharma. 37: 837-841; Dinis et aL (1994) Arch Biochem Biophys 315: 161-169; and Oyaizu (1986) Nippon Shokuhin Kogyo Gakkaishi 35: 771-775.
The compounds were also tested in four other assays, i.e., DPPH scavenging assay, superoxide anion scavenging assay, Fe^2+ chelation assay, and reduction assay. See Shimada et al. J. Agric. Food Chem. (1992) 40:945-948; Robak et al. Biochem. Pharnia. (1988) 37:837-841; Dinis et al. Arch. Biochem. Biophys. (1994) 315:161-169; and Oyaizu et al. Nippon Shokuhin Kogyo Gakkaishi (1986) 35:771-775. Compounds 3 and 4 were stronger scavengers than Compounds 5 and 6 in removing DPPH, which in turn were stronger scavengers than chlorophylls a and b and Compounds 1 and 2. […] The I50 values as to chelating Fe^2+ were lower than those as to scavenging DPPH free radical.

[1] = system: human low density lipoprotein (LDL); test: LDL measurement assay (MDA formation during LDL peroxidation); assay type: biochemical
Experimental: as §1
Under a linoleic acid emulsion assay (see, e.g., Mitsuda et al. Eiyo Shokuryo (1966) 19:210-0.214 and Wallin et al. Anal. Biochem. (1993) 208:10-15), various degrees of inhibition of conjugated diene formation were observed during lipid peroxidation. In addition to Compounds 1-6, chlorophylls a and b were also tested. […] Further, compounds chelated with Mg, e.g., Compounds 1 and 2, had stronger antioxidative property than those without chelation, e.g., Compounds 3 and 4.

[2] = superoxide anion scavenging assay; assay type: physicochemical; conditions: increasing concentrations
Experimental: as §1
The compounds were also tested in four other assays, i.e., DPPH scavenging assay, superoxide anion scavenging assay, Fe^2+ chelation assay, and reduction assay. See Shimada et al. J. Agric. Food Chem. (1992) 40:945-948; Robak et al. Biochem. Pharnia. […]

| SMILES | IC50 (DPPH scavenging assay) | IC50 [1] | superoxide anion scavenging ability as concentration increased [2] |
| --- | --- | --- | --- |
| C=Cc1c(C)c2cc3nc(c4c5[nH]c(cc6nc(cc1[nH]2)C(C)=C6CC)c(C)c5C(=O)[C@@H]4C(=O)OC)[C@@H](CCC(=O)O)[C@@H]3C [Compound 1] | > 700 µM | 10 µM |  |
| C=Cc1c(C)c2cc3nc(c4c5[nH]c(cc6nc(cc1[nH]2)C(C=O)=C6CC)c(C)c5C(=O)[C@@H]4C(=O)OC)[C@@H](CCC(=O)O)[C@@H]3C [Compound 2] | ~535 µM | 42 µM |  |
| C=Cc1c(C)c2cc3nc(c4c5[nH]c(cc6nc(cc1[nH]2)C(C)=C6CC)c(C)c5C(=O)[C@@H]4C(=O)OC)[C@@H](CCC(=O)O)[C@@H]3C [Compound 3] | ~40 µM | 21 µM |  |
| C=Cc1c(C)c2cc3nc(c4c5[nH]c(cc6nc(cc1[nH]2)C(C=O)=C6CC)c(C)c5C(=O)[C@@H]4C(=O)OC)[C@@H](CCC(=O)O)[C@@H]3C [Compound 4] | ~28 µM | 20 µM |  |
| C=Cc1c(C)c2cc3nc(c4c5[nH]c(cc6nc(cc1[nH]2)C(C)=C6CC)c(C)c5C(=O)C4C(=O)OC)C(CCC(=O)OCC=C(C)CCCC(C)CCCC(C)CCCC(C)C)C3C (stereo not shown) [Compound 5] | ~160 µM | 17 µM | a gradual increase and a subsequent plateau in their scavenging ability |
| C=Cc1c(C)c2cc3nc(c4c5[nH]c(cc6nc(cc1[nH]2)C(C)=C6CC)c(C)c5C(=O)[C@@H]4C(=O)OC)[C@@H](CCC(=O)OC/C=C(\C)CCC[C@H](C)CCC[C@H](C)CCCC(C)C)[C@@H]3C [chlorophyll a, reference compound] | ~265 µM | 5 µM |  |

More lines, main results first:

| IC50 (DPPH scavenging assay) | IC50 [1] | SMILES | superoxide anion scavenging ability as concentration increased [2] |
| --- | --- | --- | --- |
| ~120 µM | 54 µM | C=Cc1c(C)c2cc3nc(c4c5[nH]c(cc6nc(cc1[nH]2)C(C=O)=C6CC)c(C)c5C(=O)C4C(=O)OC)C(CCC(=O)OCC=C(C)CCCC(C)CCCC(C)CCCC(C)C)C3C (stereo not shown) [Compound 6] | a gradual increase and a subsequent plateau in their scavenging ability |
|  | ~16 µM | Cc1c(C)c2c(c(C)c1O)CCC(C)(C(=O)O)O2 (stereo not shown) [Trolox, reference compound] |  |
| ~200 µM | 26 µM | C=Cc1c(C)c2cc3nc(c4c5[nH]c(cc6nc(cc1[nH]2)C(C=O)=C6CC)c(C)c5C(=O)[C@@H]4C(=O)OC)[C@@H](CCC(=O)OC/C=C(\C)CCC[C@H](C)CCC[C@H](C)CCCC(C)C)[C@@H]3C [chlorophyll b, reference compound] |  |
